The record followed here is PMC11623267, “Inhibitors of malaria parasite cyclic nucleotide phosphodiesterases block asexual blood-stage development and mosquito transmission” (Science Advances, 2024).

The subject of assay [1] is P. falciparum (clone 3D7). Description: Parasite reduction ratio (PRR) assay. Format: cell-based, Plasmodium falciparum. Here is the method: The in vitro killing profile of compounds was determined by monitoring the ability of parasites to recover following treatment with a compound of interest using a previously reported approach ([50]), which allowed calculation of the PRR ([51]). […] To quantify the number of viable parasites following treatment, four independent sets of threefold serial dilutions were performed on each sample, which were assayed for the presence or absence of parasites after 28 days using the LDH assay, and the number of viable parasites was determined by the number of wells showing growth. PRR and PCT99.9% were calculated as previously reported ([50]).

In a further assay the test system is HepG2 cells. Briefly: HepG2 cytotoxicity. Format: cell-based. An excerpt: Table 1. Key activity data for the three main chemical subseries against ABS parasites, parasite fractions, and HepG2 cells. ND, not determined; ×/÷ is the geometric mean with geometric SD. | column: HepG2 EC50 (nM) (selectivity index)
The next assay relates to P. falciparum 3D7. Briefly: Ex vivo 72-hour SYBR Green assay, 3D7 control (Uganda). Format: cell-based, Plasmodium falciparum. Conditions: Ugandan ex vivo assay control; read-out: EC50 lab strain 3D7. How it is done: (§1) Samples were delivered to the adjacent IDRC laboratory at Tororo District Hospital or transported by car from Masafu Hospital on the day of collection for storage of blood spots on filter paper (for isolation of nucleic acids) and initiation of ex vivo culture of malaria parasites. […] Before assay, 10 mM antimalarial stock compounds were diluted as necessary in DMSO and stored at −20°C. […] Compounds were serially diluted threefold in a 96-well assay plate in complete medium to a final volume of 50 μl, in columns 1 to 10, with concentrations optimized to capture full dose-response curves. Column 11 contained compound-free controls, while column 12 contained uninfected human RBC controls. Parasite culture (150 μl) was added to columns 1 to 11 of the assay plate with a final volume of 200 μl per well, 0.2% parasitemia, and 2% hematocrit. […] Thawed plates were incubated with SYBR Green lysis buffer for 1 hour in the dark as previously reported ([62]). Fluorescence was quantified using a BMG Fluostar Optima plate reader at an excitation of 485 nm and an emission of 530 nm, and data were plotted using GraphPad Prism 7. The data were curve fit with a variable slope function to estimate IC50 values. For each isolate, a Z′ factor to assess assay quality was calculated from positive controls (eight drug-free wells) and negative controls (eight parasite-free, red cell control wells). Z′ values over 0.5 were considered good assays, but each curve was also examined by eye for suitability. Some assays with Z′ below 0.5 may be considered valid depending on factors such as the SE of the curve-fit IC50.

A further assay has as its system P. falciparum Dd2. Description: Ex vivo 72-hour SYBR Green assay, Dd2 control (Uganda). Format: cell-based, Plasmodium falciparum. As to conditions: Ugandan ex vivo assay control; read-out: EC50 lab strain Dd2. Here is the method: as §1

Bounds are passed on as bounds.

A word on the EC50: it is the concentration giving half of the maximal effect. With `CC(C)c1n[nH]c2c(=O)[nH]c(Cc3ccc(F)cc3F)nc12` [SAL-0010003], in assay [1] (10× EC50, 3D7), the Lag phase is 0 h, the “Log PRR” value is on record as 3.11 and the “PCT99.9% (hours taken to kill 99.9% of the parasites)” value was determined as 47.1 h. In addition, the Slope in assay [1] (10× EC50, 3D7 killing profile) is −0.0647 ± 0.0047. The Killing profile entry in assay [1] (10× EC50, faster than pyrimethamine, slower than chloroquine) is “fast/moderate killing profile”. The EC50 with HepG2 cells (Homo sapiens, HepG2) is > 25000 nM. In the assay with HepG2 cells (value in brackets after HepG2 EC50), the HepG2 selectivity index is reported as > 77.
On to `CC(C)c1[nH]nc2c(=O)[nH]c(Cc3ccccc3F)nc12` [SAL-0010042], for which the results for the EC50 in the assay with P. falciparum 3D7 and with P. falciparum Dd2 were 132 nM and 115 nM, respectively.
